Some results are limits rather than exact numbers.

Data set [1] concerns aldosterone. The data set can be described thus: aldosterone-antagonistic properties in adrenalectomised rats (urine volume, sodium and potassium excretion). The following applies: aldosterone s.c. 30 min later, urine collected 3 hours, control = aldosterone only. Type of data set: in vivo, Female Holtzmann rats. On the procedure:
If compounds of formula I are administered to the animals before the treatment with aldosterone, then there is observed, in comparison with animals which are treated only with aldosterone (control animals), a pronounced increase of the sodium excretion (i.e. the sodium retention caused by aldosterone is antagonised), whereas the potassium excretion and the urine volume are influenced to a lesser extent.
The standard experiment is carried out as follows:
Female Holtzmann rats (150-180 g) are bilaterally adrenalectomised 70 to 74 hours before the beginning of the experiment. After the operation, the animals receive a customary rat dry feed and 0.9 percent sodium chloride solution for drinking. 16 to 17 hours before the beginning of the experiment the feed is removed from the animals, but they can subsequently drink, as before, 0.9 percent sodium chloride solution ad libitum. At the beginning of the experiment the substance to be tested as an aldosterone-antagonist is administered to the animals by means of a stomach probe. 30 minutes later the animals receive a subcutaneous injection of 4 mmg/kg of aldosterone. After a further 90 minutes, the urinary bladders of the animals are emptied by careful suprapubic pressure, whereupon the animals are placed individually in metabolic cages without food and without drink. The urine of the animals is then collected for 3 hours, whereupon their urinary bladders are once more emptied. The spontaneously excreted urine and the remaining urine obtained at the conclusion of the experiment by pressing-out the urinary bladders are collected in graduated centrifuge glasses. Sodium and potassium concentrations in the urine are determined with a flame photometer.
(§1) The following Table contains results which have been obtained in the previously described experiment with representative compounds of formula I. In this Table there are given for each compound in question the dosage administered (in mg/kg p.o.) as well as the percentage variation in the urine volume, the sodium excretion and the potassium excretion in comparison with the control animals (i.e. in comparison with the animals treated only with aldosterone). Moreover, the Table contains data relating to the acute toxicity of the compounds investigated (LD 50 in mg/kg in the case of single oral administration to mice).

The nature of data set [2]: acute toxicity, single oral administration to mice. The following applies: mouse, in vivo.
Source text: as §1

Data set [3] concerns aldosterone. As to the kind of experiment: aldosterone-antagonistic properties in adrenalectomised rats (urine volume, sodium and potassium excretion). Format: in vivo, Female Holtzmann rats. Particulars: compared with untreated animals.

As a reminder, the LD50 is the dose expected to kill half of the subjects tested. Read a high LD50 as lower toxicity. With `Cc1nnc2n1-c1ccc(NC(=O)N(C)C)cc1C(c1ccccc1Cl)=NC2` [Example 10, 3-[6-(o-chlorophenyl)-1-methyl-4H-s-triazolo[4,3-a][1,4]-benzodiazepin-8-yl]-1,1-dimethylurea], in the data set on aldosterone [1] (10 mg/kg p.o.), the “potassium excretion [K+] in %, based on control animals” value (“potassium excretion [K+] in %, based” for short) turned out to be 112%; the “sodium excretion [Na+] in %, based on control animals” value (shortened to “sodium excretion [Na+] in %, based”) was determined as 252%; the “urine volume in %, based on control animals” value (from here on “urine volume in %, based”) came to 103%. In data set [2], this compound showed an LD50 of more than 5000 mg/kg.

As for `Cc1nnc2n1-c1ccc(NC(=O)NCCO)cc1C(c1ccccc1Cl)=NC2(C)C` [Example 12, 1-[6-(o-chlorophenyl)-1,4,4-trimethyl-4H-s-triazolo[4,3-a][1,4]benzodiazepin-8-yl]-3-(2-hydroxyethyl)urea], in the data set with aldosterone [1] (1 mg/kg p.o.), the “potassium excretion [K+] in %, based” value is given as 75%; the “sodium excretion [Na+] in %, based” value worked out at 215%; the “urine volume in %, based” value is recorded as 75%. The LD50 in data set [2] is more than 5000 mg/kg.

`Cc1nnc2n1-c1ccc(NC(=O)NCCO)cc1C(c1ccccc1F)=NC2(C)C` [Example 4, 1-[6-(o-fluorophenyl)-1,4,4-trimethyl-4H-s-triazolo[4,3-a][1,4]benzodiazepin-8-yl]-3-(2-hydroxyethyl)urea]: in the data set on aldosterone [1] (1 mg/kg p.o.), the “potassium excretion [K+] in %, based” value stood at 90%; the “sodium excretion [Na+] in %, based” value stood at 256%; the “urine volume in %, based” value was found to be 112%. Also, the LD50 in data set [2] is more than 5000 mg/kg.

As to `CN(C)C(=O)Nc1ccc2c(c1)C(c1ccccc1F)=NC(C)(C)c1nncn1-2` [Example 5, 3-[6-(o-fluorophenyl)-4,4-dimethyl-4H-s-triazolo[4,3-a][1,4]benzodiazepin-8-yl]-1,1-dimethylurea], in the data set on aldosterone [1] (1 mg/kg p.o.), the “potassium excretion [K+] in %, based” value turned out to be 65%; the “sodium excretion [Na+] in %, based” value was found to be 238%; the “urine volume in %, based” value worked out at 106%. In addition, the LD50 in data set [2] was more than 5000 mg/kg.

In the case of `CN(C)C(=O)Nc1ccc2c(c1)C(c1ccccc1Cl)=NCc1nncn1-2` [Example 8, 3-[6-(o-chlorophenyl)-4H-s-triazolo[4,3-a][1,4]benzodiazepin-8-yl]-1,1-dimethylurea], in the data set with aldosterone [1] (10 mg/kg p.o.), the “potassium excretion [K+] in %, based” value came out at 100%; the “sodium excretion [Na+] in %, based” value came to 252%; the “urine volume in %, based” value is listed as 131%. In data set [2], this compound registered an LD50 of more than 5000 mg/kg.

In the case of `C[C@]12CCC(=O)C=C1CC[C@@H]1[C@@H]2[C@@H](O)C[C@]2(C=O)[C@@H](C(=O)CO)CC[C@@H]12` [aldosterone], in the data set on aldosterone [3], the “excreted urine volume, effect of aldosterone” value is recorded as “reduction of the excreted urine volume”; the “potassium excretion, effect of aldosterone” value is given as “increased potassium excretion”; the “sodium excretion, effect of aldosterone” value is recorded as “pronounced reduction of the sodium excretion”.

With `CC1(C)N=C(c2ccccc2Cl)c2cc(NC(=O)N3CCCC3)ccc2-n2cnnc21` [Example 13, N-[6-(o-chlorophenyl)-4,4-dimethyl-4H-s-triazolo[4,3-a][1,4]benzodiazepin-8-yl]-1-pyrrolidinecarboxamide], in the data set on aldosterone [1] (1 mg/kg p.o.), the “potassium excretion [K+] in %, based” value stood at 72%; the “sodium excretion [Na+] in %, based” value stood at 155%; the “urine volume in %, based” value amounted to 97%. In data set [2], this compound gave an LD50 of more than 5000 mg/kg.

These data come from US4374773A, “Triazolo-benzodiazepine derivatives” (Hoffmann-La Roche Inc., priority 1980, dated 1983).
